Measured values: ChEMBL document CHEMBL1201862, “PubChem BioAssay data set” (2004)
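How tested: cells in 96-well plates exposed to compound for 48 hours at five concentrations. The concentration for 50% growth inhibition is given as GI50.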 Activity calls are given as the source filed them. Rule as the data show it: active = GI50 up to about 1.1 µM and inactive = higher.

Legend:
Assay in all cases: NCI anticancer screen, dose series, 48 h
TK-10 = system: TK-10
RPMI-8226 = system: RPMI-8226
SK-MEL-28 = system: SK-MEL-28
SN12C = system: SN12C
SR = system: SR
MDA-N = system: MDA-N
K562 = system: K562
UO-31 = system: UO-31
MDA-MB-231 = system: MDA-MB-231
MCF7 = system: MCF7
SNB-19 = system: SNB-19
T47D = system: T47D
MOLT-4 = system: MOLT-4
MDA-MB-435 = system: MDA-MB-435
SW-620 = system: SW-620
A498 = system: A498
KM12 = system: KM12
OVCAR-8 = system: OVCAR-8
UACC-257 = system: UACC-257
Hs-578T = system: Hs-578T
PC-3 = system: PC-3
Malme-3M = system: Malme-3M
HCC 2998 = system: HCC 2998
SK-OV-3 = system: SK-OV-3
SNB-75 = system: SNB-75
HCT-116 = system: HCT-116
SK-MEL-5 = system: SK-MEL-5
NCI-H522 = system: NCI-H522
ACHN = system: ACHN
SF-268 = system: SF-268
DU-145 = system: DU-145
LOX IMVI = system: LOX IMVI
HOP-62 = system: HOP-62
CCRF-CEM = system: CCRF-CEM
OVCAR-3 = system: OVCAR-3
786-0 = system: 786-0
HL-60 = system: HL-60
SK-MEL-2 = system: SK-MEL-2
U-251 = system: U-251
NCI-H23 = system: NCI-H23
A549 = system: A549
IGROV-1 = system: IGROV-1
HT-29 = system: HT-29
EKVX = system: EKVX
HOP-92 = system: HOP-92
UACC-62 = system: UACC-62
RXF 393 = system: RXF 393
COLO 205 = system: COLO 205
SF-295 = system: SF-295
HCT-15 = system: HCT-15
OVCAR-4 = system: OVCAR-4
NCI-H460 = system: NCI-H460
OVCAR-5 = system: OVCAR-5
BT-549 = system: BT-549
NCI/ADR-RES = system: NCI/ADR-RES
M14 = system: M14
CAKI-1 = system: CAKI-1
NCI-H226 = system: NCI-H226
SF-539 = system: SF-539

CCCCCCCC(=O)OC[n+]1ccc(-c2c(COC(=O)NC(C)C)c(COC(=O)NC(C)C)c3n2CCC3)cc1
GI50 (TK-10): > 67.5 µM (inactive)
GI50 (RPMI-8226): 22.1 µM (inactive)
GI50 (SK-MEL-28): > 100 µM (inactive)
GI50 (SN12C): 33.4 µM (inactive)
GI50 (SR): 5.65 µM (inactive)
GI50 (MDA-N): > 94.8 µM (inactive)
GI50 (K562): 34.4 µM (inactive)
GI50 (UO-31): 42.4 µM (inactive)
GI50 (MDA-MB-231): 48.8 µM (inactive)
GI50 (MCF7): 30.2 µM (inactive)
GI50 (SNB-19): 88.9 µM (inactive)
GI50 (T47D): > 64.9 µM (inactive)
GI50 (MOLT-4): 13.3 µM (inactive)
GI50 (MDA-MB-435): 69 µM (inactive)
GI50 (SW-620): 23.2 µM (inactive)
GI50 (A498): 29.9 µM (inactive)
GI50 (KM12): > 100 µM (inactive)
GI50 (OVCAR-8): 43.1 µM (inactive)
GI50 (UACC-257): 70.6 µM (inactive)
GI50 (Hs-578T): 52.6 µM (inactive)
GI50 (PC-3): > 65.2 µM (inactive)
GI50 (Malme-3M): 44.9 µM (inactive)
GI50 (HCC 2998): > 100 µM (inactive)
GI50 (SK-OV-3): 63.1 µM (inactive)
GI50 (SNB-75): 42.3 µM (inactive)
GI50 (HCT-116): 25.5 µM (inactive)
GI50 (SK-MEL-5): 34.8 µM (inactive)
GI50 (NCI-H522): 26.4 µM (inactive)
GI50 (ACHN): 20.4 µM (inactive)
GI50 (SF-268): 25.8 µM (inactive)
GI50 (DU-145): 23.4 µM (inactive)
GI50 (LOX IMVI): 20.1 µM (inactive)
GI50 (HOP-62): 56.6 µM (inactive)
GI50 (CCRF-CEM): 13.5 µM (inactive)
GI50 (OVCAR-3): > 62.7 µM (inactive)
GI50 (786-0): 27 µM (inactive)
GI50 (HL-60): 14.8 µM (inactive)
GI50 (SK-MEL-2): 22.1 µM (inactive)
GI50 (U-251): 51.5 µM (inactive)
GI50 (NCI-H23): 35.2 µM (inactive)
GI50 (A549): 63.8 µM (inactive)
GI50 (IGROV-1): 31 µM (inactive)
GI50 (HT-29): 42.6 µM (inactive)
GI50 (EKVX): > 79.6 µM (inactive)
GI50 (HOP-92): 26.4 µM (inactive)
GI50 (UACC-62): 13.8 µM (inactive)
GI50 (RXF 393): 21.1 µM (inactive)
GI50 (COLO 205): 48.9 µM (inactive)
GI50 (SF-295): 53.5 µM (inactive)
GI50 (HCT-15): 52.4 µM
GI50 (OVCAR-4): 38.6 µM (inactive)
GI50 (NCI-H460): 21.4 µM (inactive)
GI50 (OVCAR-5): > 96.6 µM (inactive)
GI50 (BT-549): > 52.7 µM (inactive)
GI50 (NCI/ADR-RES): 53.8 µM (inactive)
GI50 (M14): 49.8 µM (inactive)
GI50 (CAKI-1): 18.6 µM (inactive)
GI50 (NCI-H226): > 78.5 µM (inactive)
GI50 (SF-539): 23.1 µM (inactive)
